# Experimental data from patent US20230312605A1, “PYRROLO[2,1-F][1,2,4]TRIAZINES AND PREPARATION AND USES THEREOF” (BioSplice Therapeutics, Inc., priority 2021, published 2023).
# Biological target: recombinant DYRK1A kinase (Homo sapiens (Human), UniProt Q13627)
# Assay: DYRK1A kinase assay (Ser/Thr 18 peptide Z-lyte FRET assay)
# Assay type: biochemical
# Settings: recombinant DYRK1A 0.25 µg/mL, ATP 15 µM, Ser/Thr peptide 18 4 µM, one hour at room temperature; table head prints EC50, method says IC50
# Procedure, shortened: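 Recombinant human DYRK1A (0.25 µg/mL) with 15 µM ATP and 4 µM Ser/Thr 18 peptide was incubated 1 h at room temperature with compound (11-point, 10 µM top), in duplicate. Z-lyte FRET read-out (coumarin/fluorescein emission ratio) was converted to percent phosphorylation; IC50 from non-linear regression.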
row,SMILES,EC50
1,"Cc1nc2ccc(-c3ccn4nc(NC5CCN(C(=O)C6CCC(F)(F)CC6)CC5)ncc34)nc2n1CC(F)F [Compound 1953, (4,4-difluorocyclohexyl)(4-((5-(3-(2,2-difluoroethyl)-2-methyl-3H-imidazo[4,5-b]pyridin-5-yl)pyrrolo[2,1-f][1,2,4]triazin-2-yl)amino)piperidin-1-yl)methanone]",7 nM
2,"Cc1nc2ccc(-c3ccn4nc(NC5CCN(S(C)(=O)=O)CC5)ncc34)nc2n1CC(F)F [Compound 1861, 5-(3-(2,2-Difluoroethyl)-2-methyl-3H-imidazo[4,5-b]pyridin-5-yl)-N-(1-(methylsulfonyl)piperidin-4-yl)pyrrolo[2,1-f][1,2,4]triazin-2-amine]",7 nM
3,"FC1(CNc2ncc3c(-c4cnc5nccn5c4)ccn3n2)CCC1 [Compound 227, N-((1-Fluorocyclobutyl)methyl)-5-(imidazo[1,2-a]pyrimidin-6-yl)pyrrolo [2,1-f][1,2,4]triazin-2-amine]",4 nM
4,"CC(C)Nc1ncc2c(-c3cnc4nccn4c3)ccn2n1 [Compound 214, 5-(Imidazo[1,2-a]pyrimidin-6-yl)-N-isopropylpyrrolo[2,1-f][1,2,4]triazin-2-amine]",33 nM
5,"Cc1nc2ccc(-c3ccn4nc(N[C@H]5CC[C@@H](OC(F)F)CC5)ncc34)nc2n1CC(F)F [Compound 1113, N-(cis-4-(Difluoromethoxy)cyclohexyl)-5-(3-(2,2-difluoroethyl)-2-methyl-3H-imidazo[4,5-b]pyridin-5-yl)pyrrolo[2,1-f][1,2,4]triazin-2-amine]",7 nM
6,"Cc1nc2ncc(-c3ccn4nc(N[C@H]5CC[C@](C)(O)CC5)ncc34)cc2n1CC(F)F [Compound 1879, trans-4-((5-(1-(2,2-Difluoroethyl)-2-methyl-1H-imidazo[4,5-b]pyridin-6-yl)pyrrolo[2,1-f][1,2,4]triazin-2-yl)amino)-1-methylcyclohexan-1-ol]",2 nM
7,"CN1CCC(Nc2ncc3c(-c4cnc5ncccc5c4)ccn3n2)CC1 [Compound 1557, N-(1 -Methylpiperidin-4-yl)-5-(1,8-naphthyridin-3-yl)pyrrolo [2,1-f] [1,2,4] triazin-2-amine]",18 nM
8,"COCCO[C@H]1CC[C@@H](Nc2ncc3c(-c4ccc5nc(C)n(CC(F)F)c5n4)ccn3n2)CC1 [Compound 1117, 5-(3-(2,2-Difluoroethyl)-2-methyl-3H-imidazo[4,5-b]pyridin-5-yl)-N-(cis-4-(2-methoxyethoxy)cyclohexyl)pyrrolo[2,1-f][1,2,4]triazin-2-amine]",4 nM
9,"C[C@]1(O)C[C@@H](Nc2ncc3c(-c4cnc5ncccc5c4)ccn3n2)C1 [Compound 1825, cis-3-((5-(1,8-Naphthyridin-3-yl)pyrrolo[2,1-f][1,2,4]triazin-2-yl)amino)-1-methylcyclobutan-1-ol]",5 nM
10,"Cc1nc2ccc(-c3ccn4nc(N[C@@H]5CCN(C)C[C@@H]5F)ncc34)nc2n1CC(F)F [Compound 1853, 5-(3-(2,2-Difluoroethyl)-2-methyl-3H-imidazo[4,5-b]pyridin-5-yl)-N-((3S,4R)-3-fluoro-1-methylpiperidin-4-yl)pyrrolo[2,1-f][1,2,4]triazin-2-amine]",5 nM
11,"CC(=O)N[C@]1(C)C[C@@H](Nc2ncc3c(-c4ccc5nccnc5c4)ccn3n2)C1 [Compound 1981, N-((1r,3r)-1-methyl-3-((5-(quinoxalin-6-yl)pyrrolo[2,1-f][1,2,4]triazin-2-yl)amino)cyclobutyl)acetamide]",2 nM
12,"CN1CCC(Nc2ncc3c(-c4cnc5nccn5c4)ccn3n2)CC1 [Compound 279, 5-(Imidazo[1,2-a]pyrimidin-6-yl)-N-(1-methylpiperidin-4-yl)pyrrolo[2,1-f][1,2,4]triazin-2-amine]",49 nM
13,"O[C@H]1C[C@@H](Nc2ncc3c(-c4ccc5ncccc5c4)ccn3n2)C1 [Compound 1723, cis-3-((5-(Quinolin-6-yl)pyrrolo[2,1-f][1,2,4]triazin-2-yl)amino)cyclobutan-1-ol]",4 nM
14,"Cc1nc2ccc(-c3ccn4nc(N[C@H]5CC[C@@H](CO)CC5)ncc34)nc2n1CC(F)F [Compound 1837, (cis-4-((5-(3-(2,2-Difluoroethyl)-2-methyl-3H-imidazo[4,5-b]pyridin-5-yl)pyrrolo[2,1-f][1,2,4]triazin-2-yl)amino)cyclohexyl)methanol]",6 nM
15,"Cc1nc2ncc(-c3ccn4nc(NC5CCOCC5)ncc34)cc2n1CC(F)F [Compound 706, 5-(1-(2,2-Difluoroethyl)-2-methyl-1H-imidazo[4,5-b]pyridin-6-yl)-N-(tetrahydro-2H-pyran-4-yl)pyrrolo[2,1-f][1,2,4]triazin-2-amine]",5 nM
16,"Cc1nc2ncc(-c3ccn4nc(N[C@H]5CC[C@@](C)(O)CC5)ncc34)cc2n1CC(F)F [Compound 684, cis-4-((5-(1-(2,2-Difluoroethyl)-2-methyl-1H-imidazo[4,5-b]pyridin-6-yl)pyrrolo[2,1-f][1,2,4]triazin-2-yl)amino)-1-methylcyclohexan-1-ol]",4 nM

row,SMILES,EC50
1,"Cc1nc2ncc(-c3ccn4nc(N[C@H]5C[C@@](C)(O)C5)ncc34)cc2n1CC(F)F [Compound 1813, cis-3-((5-(1-(2,2-Difluoroethyl)-2-methyl-1H-imidazo [4,5-b]pyridin-6-yl)pyrrolo[2,1-f] [1,2,4]triazin-2-yl)amino)-1-methylcyclobutan-1-ol]",4 nM
2,"Cc1nc2ccc(-c3ccn4nc(NC5CCOCC5)ncc34)nc2n1CC(C)(C)O [Compound 1871, 2-Methyl-1-(2-methyl-5-(2-((tetrahydro-2H-pyran-4-yl)amino)pyrrolo[2,1-f][1,2,4]triazin-5-yl)-3H-imidazo[4,5-b]pyridin-3-yl)propan-2-ol]",72 nM
3,"Cc1nc2ccc(-c3ccn4nc(NC5CCN(CC(F)F)CC5)ncc34)nc2n1CC(F)F [Compound 1850, 5-(3-(2,2-Difluoroethyl)-2-methyl-3H-imidazo[4,5-b]pyridin-5-yl)-N-(1-(2,2-difluoroethyl)piperidin-4-yl)pyrrolo[2,1-f][1,2,4]triazin-2-amine]",8 nM
4,"CO[C@H]1CC[C@@H](Nc2ncc3c(-c4cnc5nc(C)n(CC(F)F)c5c4)ccn3n2)CC1 [Compound 685, 5-(1-(2,2-Difluoroethyl)-2-methyl-1H-imidazo[4,5-b]pyridin-6-yl)-N-(cis-4-methoxycyclohexyl)pyrrolo[2,1-f] [1,2,4]triazin-2-amine]",3 nM
5,"CO[C@H]1CC[C@H](Nc2ncc3c(-c4cnc5nccn5c4)ccn3n2)CC1 [Compound 260, 5-(Imidazo[1,2-a]pyrimidin-6-yl)-N-(trans-4-methoxycyclohexyl)pyrrolo [2,1-f] [1,2,4]triazin-2-amine]",9 nM
6,"Cc1nc2ccc(-c3ccn4nc(N[C@H]5CC[C@@](C)(O)CC5)ncc34)nc2n1CC(F)F [Compound 1110, (1s,4s)-4-((5-(3-(2,2-Difluoroethyl)-2-methyl-3H-imidazo[4,5-b]pyridin-5-yl)pyrrolo[2,1-f][1,2,4]triazin-2-yl)amino)-1-methylcyclohexan-1-ol]",3 nM
7,"Cc1nc2ccc(-c3ccn4nc(N[C@H]5CC[C@@](C)(O)CC5)ncc34)nc2n1CC(C)(C)C#N [Compound 1869, 3-(5-(2-((cis-4-Hydroxy-4-methylcyclohexyl)amino)pyrrolo[2,1-f][1,2,4]triazin-5-yl)-2-methyl-3H-imidazo[4,5-b]pyridin-3-yl)-2,2-dimethylpropanenitrile]",16 nM
8,"Cc1nc2ccc(-c3ccn4nc(N[C@H]5CCN(CC(C)C)C[C@H]5F)ncc34)nc2n1CC(F)F [Compound 1909, 5-(3-(2,2-difluoroethyl)-2-methyl-3H-imidazo[4,5-b]pyridin-5-yl)-N-((3R,4S)-3-fluoro-1-isobutylpiperidin-4-yl)pyrrolo[2,1-f][1,2,4]triazin-2-amine]",5 nM
9,"Cc1nc2ccc(-c3ccn4nc(NC5CCN(CCO)CC5)ncc34)nc2n1CC(F)F [Compound 1852, 2-(4-((5-(3-(2,2-Difluoroethyl)-2-methyl-3H-imidazo[4,5-b]pyridin-5-yl)pyrrolo[2,1-f][1,2,4]triazin-2-yl)amino)piperidin-1-yl)ethan-1-ol]",9 nM
10,"Cc1nc2ccc(-c3ccn4nc(N[C@@H]5COC[C@H]5O)ncc34)nc2n1CC(F)F [Compound 1906, (3S,4R)-4-((5-(3-(2,2-Difluoroethyl)-2-methyl-3H-imidazo [4,5-b]pyridin-5-yl)pyrrolo[2,1-f][1,2,4]triazin-2-yl)amino)tetrahydrofuran-3-ol]",4 nM
11,"COCCO[C@H]1CC[C@@H](Nc2ncc3c(-c4cnc5nccn5c4)ccn3n2)CC1 [Compound 265, 5-(Imidazo[1,2-a]pyrimidin-6-yl)-N-(cis-4-(2-methoxyethoxy)cyclohexyl) pyrrolo[2,1-f] [1,2,4]triazin-2-amine]",6 nM
12,"Cc1nc2ccc(-c3ccn4nc(N[C@H]5C[C@H](N6CCOCC6)C5)ncc34)nc2n1CC(F)F [Compound 1893, 5-(3-(2,2-Difluoroethyl)-2-methyl-3H-imidazo[4,5-b]pyridin-5-yl)-N-(trans-3-morpholinocyclobutyl)pyrrolo[2,1-f][1,2,4]triazin-2-amine]",5 nM
13,"CC(=O)N[C@]1(C)C[C@@H](Nc2ncc3c(-c4ccn5nccc5c4)ccn3n2)C1 [Compound 1983, N-(trans-1-Methyl-3-((5-(pyrazolo[1,5-a]pyridin-5-yl)pyrrolo[2,1-f][1,2,4]triazin-2-yl)amino)cyclobutyl)acetamide]",1 nM
14,"Cc1nc2ccc(-c3ccn4nc(N[C@H]5CC[C@](C)(O)CC5)ncc34)nc2n1CC(F)F [Compound 1840, trans-4-((5-(3-(2,2-Difluoroethyl)-2-methyl-3H-imidazo[4,5-b]pyridin-5-yl)pyrrolo[2,1-f][1,2,4]triazin-2-yl)amino)-1-methylcyclohexan-1-ol]",3 nM
15,"CC(C)(F)CNc1ncc2c(-c3ccc4nccn4n3)ccn2n1 [Compound 145, N-(2-Fluoro-2-methylpropyl)-5-(imidazo [1,2-b]pyridazin-6-yl)pyrrolo[2,1-f] [1,2,4]triazin-2-amine]",45 nM
